# Source: patent publication US20110077294A1, “R-(-) / S-(+)-7-[3-N SUBSTITUTED AMINO-2 HYDROXYPROPOXY] FLAVONES” (priority 2006, published 2011)
# What was measured:
# Format in all cases: in vivo
# [1] = system: C57BL/KsBom-db/db mice; experiment: Serum lipid profile of treated db/db mice (antidyslipidemic activity); conditions: db/db mice, test dose 25 mg/kg
# [2] = system: C57BL/KsBom-db/db mice; experiment: Blood glucose profile of db/db mice during daily treatment (antihyperglycemic activity)
# Experimental: (§1) C57BL/KsBom-db/db mice (12-18 weeks old), weighing around 35+g bred in the animal house of CDRI, Lucknow, were used in the present experiments. The mice were housed in groups of 3 to 5 (same sex) in a room controlled for temperature (23±2.0 ° C.) and 12/12 hours light/dark cycle (lights on at 6.00 am). Body weight of each animal was measured daily from day 1 to day 10 of the experiment. All animals had free access to fresh water and normal pellet diet except on the day of the postprandial protocol (day 6) and during the overnight fast before the OGTT on day 10. The animals always had access to water during experimental periods. Blood glucose was checked every morning up till day 10. On day 10 an oral glucose tolerance test (OGTT) was performed after an overnight fasting. Blood glucose was measured at −30.0 min and test compounds were administered. The blood glucose was again measured at 0 min just post treatment and at this juncture glucose solution was given at a dose of 3 gm/kg to all the groups including the vehicle treated group. The blood glucose levels were checked at 30 min, 60 min, 90 min and 120 min post glucose administration. The data was analyzed for its significance on Prism software.
# [3] = system: C57BL/KsBom-db/db mice; experiment: Oral glucose tolerance test (OGTT) on day 10 in db/db mice; conditions: 25 mg/kg
# Experimental: as §1
# [4] = system: C57BL/KsBom-db/db mice; experiment: Serum lipid profile of treated db/db mice (antidyslipidemic activity); conditions: 25 mg/kg
# Experimental: as §1
compound,measurement,setting,value
"CC(C)(C)NC[C@@H](O)COc1ccc2c(=O)cc(-c3cc(OCc4ccccc4)cc(OCc4ccccc4)c3)oc2c1 [S-002-853 (R), (R)-(−)-7-(3-tert-butylamino-2-hydroxypropoxy)-3′,5′-dibenzyloxyflavone]",Comparative antihyperlipidemic activity: HDL-C,[1],+8.06^ns
same,Comparative antihyperlipidemic activity: T-Chol,[1],−3.72^ns
same,Comparative antihyperlipidemic activity: TG,[1],−9.72^ns
same,antihyperglycemic and antidyslipidemic/antihyperlipidemic activity (in words),[2]; 25 mg/kg,insignificant antihyperglycemic or antihyperlipidemic effects
same,blood glucose profile compared to sham treated (in words),[2]; 25 mg/kg,no significant difference in the blood glucose profile between the two groups at any day
same,"Blood glucose, day 1 post treatment","[2]; 25 mg/kg, day 1",12.0 ± 2.52 mM
same,"Blood glucose % change compared to control, day 1","[2]; 25 mg/kg, day 1, vs sham",+1.1%
same,"Blood glucose, day 2 post treatment","[2]; 25 mg/kg, day 2",12.4 ± 2.65 mM
same,"Blood glucose % change compared to control, day 2","[2]; 25 mg/kg, day 2, vs sham",−31.9%
same,"Blood glucose, day 3 post treatment","[2]; 25 mg/kg, day 3",10.3 ± 1.33 mM
same,"Blood glucose % change compared to control, day 3","[2]; 25 mg/kg, day 3, vs sham",−24.1%
same,"Blood glucose, day 4 post treatment","[2]; 25 mg/kg, day 4",13.3 ± 4.61 mM
same,"Blood glucose % change compared to control, day 4","[2]; 25 mg/kg, day 4, vs sham",−18.1%
same,"Blood glucose, day 5 post treatment","[2]; 25 mg/kg, day 5",12.3 ± 4.32 mM
same,"Blood glucose % change compared to control, day 5","[2]; 25 mg/kg, day 5, vs sham",−24.0%
same,"Blood glucose, day 6 post treatment","[2]; 25 mg/kg, day 6",12.1 ± 3.82 mM
same,"Blood glucose % change compared to control, day 6","[2]; 25 mg/kg, day 6, vs sham",−19.8%
same,"Blood glucose, day 7 post treatment","[2]; 25 mg/kg, day 7",14.5 ± 5.49 mM
same,"Blood glucose % change compared to control, day 7","[2]; 25 mg/kg, day 7, vs sham",−31.9%
same,"Blood glucose, day 8 post treatment","[2]; 25 mg/kg, day 8",13.4 ± 4.54 mM
same,"Blood glucose % change compared to control, day 8","[2]; 25 mg/kg, day 8, vs sham",−35.4%
same,"Blood glucose, day 9 post treatment","[2]; 25 mg/kg, day 9",13.5 ± 4.66 mM
same,"Blood glucose % change compared to control, day 9","[2]; 25 mg/kg, day 9, vs sham",−38.3%
same,Comparative antihyperglycemic activity: Average Fall,"[2]; test dose 25 mg/kg, day given in brackets",38.3%
same,oral glucose tolerance compared to sham treated (in words),[3],no difference in oral glucose tolerance curve
same,"Blood glucose profile, 0 min post glucose load","[3]; OGTT day 10, 0 min",20.3 ± 4.74 mM
same,"Blood glucose % change compared to control, 0 min post glucose load","[3]; OGTT day 10, 0 min, vs sham",−3.30%
same,"Blood glucose profile, 30 min post glucose load","[3]; OGTT day 10, 30 min",34.3 ± 16.9 mM
same,"Blood glucose % change compared to control, 30 min post glucose load","[3]; OGTT day 10, 30 min, vs sham",+3.70%
same,"Blood glucose profile, 60 min post glucose load","[3]; OGTT day 10, 60 min",25.9 ± 9.75 mM
same,"Blood glucose % change compared to control, 60 min post glucose load","[3]; OGTT day 10, 60 min, vs sham",0.00%
same,"Blood glucose profile, 90 min post glucose load","[3]; OGTT day 10, 90 min",24.5 ± 9.13 mM
same,"Blood glucose % change compared to control, 90 min post glucose load","[3]; OGTT day 10, 90 min, vs sham",+17.0%
same,"Blood glucose profile, 120 min post glucose load","[3]; OGTT day 10, 120 min",23.0 ± 10.0 mM
same,"Blood glucose % change compared to control, 120 min post glucose load","[3]; OGTT day 10, 120 min, vs sham",+24.9%
same,"Blood glucose profile, −30 min post glucose load","[3]; OGTT day 10, −30 min",13.6 ± 0.46 mM
same,"Blood glucose % change compared to control, −30 min post glucose load","[3]; OGTT day 10, −30 min, vs sham",17.4%
same,HDL-cholesterol levels compared to sham treated (in words),[4],no significant difference in the HDL-cholesterol levels
same,Serum lipid profile: Cholesterol,[4],144.0 ± 7.37 mg/dL
same,Serum lipid profile: HDL-Chol,[4],58.0 ± 6.24 mg/dL
same,Serum lipid profile: Triglycerides,[4],132.0 ± 11.5 mg/dL
same,"serum cholesterol, triglycerides (lipid profile) compared to sham treated (in words)",[4],no significant lowering in either the case of serum cholesterol or triglycerides
same,Cholesterol % change compared to control,[4]; vs sham,−3.72%
same,HDL-Chol % change compared to control,[4]; vs sham,+8.06%
same,Triglycerides % change compared to control,[4]; vs sham,−9.72%
